The EC50 is the midpoint of the concentration-response curve.

One compound from ChEMBL document CHEMBL3886696, “Compounds and methods for treating ocular diseases” (2016) can be followed below.

The target in assay [1] is T1, Prostaglandin E2 receptor EP4 subtype (Homo sapiens, UniProt P35408). Description: (§1) cAMP Assay: EP4 receptors couple to Gs and mediate elevations in cAMP concentration, although they do participate in other pathways as well. There are some redundancies in function between EP2 and EP4 receptors. For example, both receptors induce PGE2-mediated RANKL through cAMP. It counts as functional.

Assay [2] deals with T2, Prostaglandin E2 receptor EP2 subtype (Homo sapiens, UniProt P43116). The description is as §1. The assay is classed as functional.
In assay [3] the target is T1, Prostaglandin E2 receptor EP4 subtype. The experiment in a line: (§2) Radioligand Binding: HEK-293 cells stably expressing the human or feline FP receptor, or EP1, EP2, or EP4 receptors were washed with TME buffer, scraped from the bottom of the flasks, and homogenized for 30 sec using a Brinkman PT 10/35 polytron. TME buffer was added to achieve a final 40 ml volume in the centrifuge tubes (the composition of TME is 100 mM TRIS base, 20 mM MgCl2, […]; 10N HCl is added to achieve a pH of 7.4). The cell homogenate was centrifuged at 19000 r.p.m. for 20 min at 4 °C. using a Beckman Ti-60 rotor. The resultant pellet was resuspended in TME buffer to give a final 1 mg/ml protein concentration, as determined by Biorad assay. Radioligand binding competition assays vs. [3H-]17-phenyl PGF2a (5 nM) were performed in a 100 μl volume for 60 min. Binding reactions were started by adding plasma membrane fraction. The reaction was terminated by the addition of 4 ml ice-cold TRIS-HCl buffer and rapid filtration through glass fiber GF/B filters using a Brandel cell harvester. The filters were washed 3 times with ice-cold buffer and oven dried for one hour. [3H−] PGE2 (specific activity 180 Ci mmol) was used as the radioligand for EP receptors. [3H] 17-phenyl PGF2a was employed for FP receptor binding studies. Binding studies employing EP1, EP2, EP4 and FP receptors were performed in duplicate in at least three separate experiments. A 200 μl assay volume was used. […]. It counts as cell-free.

Assay [4] concerns the target T2, Prostaglandin E2 receptor EP2 subtype. The assay is described as §2. The assay is classed as cell-free.

T1 sequence (P35408 whole entry): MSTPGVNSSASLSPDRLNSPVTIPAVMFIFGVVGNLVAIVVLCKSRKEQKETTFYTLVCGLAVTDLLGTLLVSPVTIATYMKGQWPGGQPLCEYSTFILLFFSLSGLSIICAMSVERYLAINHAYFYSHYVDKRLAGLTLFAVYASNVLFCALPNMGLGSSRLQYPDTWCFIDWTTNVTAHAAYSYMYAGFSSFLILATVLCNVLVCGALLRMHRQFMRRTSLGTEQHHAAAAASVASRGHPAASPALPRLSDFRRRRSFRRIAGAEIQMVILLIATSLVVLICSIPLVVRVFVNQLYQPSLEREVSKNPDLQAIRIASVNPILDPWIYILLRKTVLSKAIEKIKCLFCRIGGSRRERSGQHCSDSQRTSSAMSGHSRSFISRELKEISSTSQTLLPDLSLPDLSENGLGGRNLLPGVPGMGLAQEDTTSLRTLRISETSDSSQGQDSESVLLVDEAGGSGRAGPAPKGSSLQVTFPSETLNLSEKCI
T2 sequence (P43116 whole entry): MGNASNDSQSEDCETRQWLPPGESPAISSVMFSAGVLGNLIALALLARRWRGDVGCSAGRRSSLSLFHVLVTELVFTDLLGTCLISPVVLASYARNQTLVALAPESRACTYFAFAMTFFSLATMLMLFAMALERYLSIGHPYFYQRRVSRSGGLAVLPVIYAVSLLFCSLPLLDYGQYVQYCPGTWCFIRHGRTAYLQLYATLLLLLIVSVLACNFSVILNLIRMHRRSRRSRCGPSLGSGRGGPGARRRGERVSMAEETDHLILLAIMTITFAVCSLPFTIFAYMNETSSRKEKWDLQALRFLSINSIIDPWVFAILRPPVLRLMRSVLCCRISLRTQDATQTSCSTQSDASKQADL

`O=C(O)c1ccc(CCCN2[C@@H](/C=C/C(O)Cc3cccc(OC(F)(F)F)c3)CCS2(=O)=O)s1` (some centres undefined): the EC50 in assay [1] was 0.001 µM; in assay [2], 0.038 µM; in assay [3] it was 0.053 µM; in assay [4], 0.096 µM.
